From article PMC4465272 (eNeuro, 2015)
“Also recorded” adds a separate entry of the source.

Columns and labels:
[1] = system: CaV current in rat sensory neurons (DRG); experiment: cells; format: cell-based, rat (adult male Sprague Dawley)
rat α9α10 nAChRs = format: cell-based
[2] = system: N-type CaV (CaV2.2) current in sensory neurons; settings: cited from earlier work
human GABAB receptor = settings: cited from earlier work
[3] = system: GABAB receptors expressed in Xenopus laevis oocytes; settings: cited from earlier work
[4] = system: eEPSCs in the dorsal horn of rat spinal cord; settings: cited from earlier work
animal pain models = settings: in vivo; cited from earlier work
α9α10 nAChRs = settings: cited from earlier work
[5] = system: nAChRs subtypes containing the α3 subunit; settings: cited from earlier work

## Vc1.1
[1]
  CaV current inhibition in the neuron with the largest Vc1.1 and RgIA response: 41%
  CaV current inhibition in the neuron with the largest baclofen response: 3.5%
  average CaV current inhibition in neurons with baclofen responses of 20 − 24%: 4.3 ± 6.6%
  enhancement of CaV current inhibition by BSA: no enhancement of the CaV current inhibition was observed
  inhibition of CaV current in example neuron: 40%
  postpulse CaV current inhibition: 6.2 ± 12.5%
  prepulse CaV current inhibition: 6.5 ± 12.7%
  recovery τ from CaV current block: 0.5 ± 0.2 min
  reversibility of CaV current block: readily reversible; also recorded: almost full recovery from inhibition
  voltage dependence of CaV current inhibition: not voltage-dependent
[1]; 1 µM
  average CaV current inhibition (as summarised in discussion): 7%
  average effect on CaV current (in words): only minimal inhibition
  neurons responding with CaV current inhibition >10%: 19%
Rat α9α10 nAChRs
  block of ACh-induced current: 85 ± 13%
[2]
  GABAB dependence of N-type CaV current inhibition: requires functional GABAB receptors
  reversibility of CaV current block: irreversible
  sensory neurons with CaV current inhibited: ~75%
Human GABAB receptor
  effect on binding of [^3H]CGP-54626, a specific competitive antagonist: failed to block binding; also recorded: Neither Vc1.1 or RgIA were able to prevent the binding
[3]
  activation of GABAB receptors: do not activate GABAB receptors; also recorded: failed to activate GABAB receptors
[4]
  effect on eEPSCs / EPSPs in dorsal horn: does not affect excitatory neurotransmitter release; also recorded: no inhibition of EPSPs; also recorded: failed to affect
Animal pain models
  antinociceptive / analgesic effect: antinociceptive effects
α9α10 nAChRs
  antagonism of α9α10 nAChRs: potent antagonists
[5]
  antagonism of nAChRs containing the α3 subunit: weakly antagonizes
